{"source": "patent US7914800B2", "about": "“LTB4 as vaccine adjuvant” (priority 2001, dated 2011)", "key": {"[1]": {"system": "mycobacterium tuberculosis", "assay_type": "in vivo, BALB/c mice", "settings": "1-10 ng LTB4 with BCG vaccine, intradermal on days 0, 24, 68 and 145; sera at day 160"}, "murine CMV [2]": {"system": "murine CMV", "assay": "Total anti-CMV antibodies following acute CMV infection in BALB/c mice (ELISA)", "assay_type": "in vivo", "settings": "LTB4 5 μg/kg i.p. 3 times a week for 12 weeks from day 5 post-infection", "method": "Our next series of experiments were designed to test the potential of LTB4 to modulate antibody response during an acute CMV infection. BALB/c mice were infected by intraperitoneal (i.p.) injection with 10,000 pfu of murine CMV. On day 5 post-infection, mice (n=10) received saline by i.p. injection or LTB4 (5 μg/kg) (n=9) by i.p. injection 3 times a week for 12 weeks. At that time, sera was taken from each mouse and tested for anti-CMV specific antibodies.\nAdult (6-8 weeks) female BALB/c mice were infected by intraperitoneal (I.P.) injection with 1×10^4 pfa of murine CMV. Starting on the fifth day post-infection, mice were injected with saline or LTB4 (5 μg/kg) by I.P. injection at a frequency of three times a week for 12 weeks. Mice were then bled and sacrificed. Total anti-CMV antibodies from each mouse were quantified by ELISA. ELISA plates were coated with a lysates from CMV-infected fibroblasts as the source of CMV antigens. One μg of protein lysates were added to each well and incubated-overnight at 4° C. After several washes with TBS-T, non-specific sites were blocked by the addition of saline containing 10% fetal bovine serum for one hour at room temperature. […] After 30 minutes, the absorbance (405 nm) from each well was recorded using an ELISA plate reader. The values, expressed as optical density (OD), were plotted against the reciprocal of serum dilution. […]"}, "Influenza": {"system": "Influenza", "assay": "Anti-Influenza antibody generation in BALB/c mice following immunization with the Fluviral vaccine (ELISA)", "assay_type": "in vivo", "settings": "intramuscular", "method": "To test the adjuvant potential of LTB4, groups of 10 BALB/c mice were immunized once by intramuscular injection with 5 μl of the commercial “Fluviral” vaccine preparation in combination with saline or 1 ng of LTB4. Fourteen days following immunization, mice were bled and sera analyzed for specific anti-Influenza IgG antibodies by ELISA.\nAdult (6-8 weeks) BALB/c female mice were immunized by intramuscular injection with 5 μl of the commercial Influenza (Fluviral) vaccine in combination or not with 1 ng of LIB4. Fourteen days later, mice were bled by cardiac puncture and sera obtained. Anti-Influenza antibodies were quantitated by enzyme-linked immunosorbent assay (ELISA). Wells of a 96-well plate were coated with the Fluvial vaccine preparation ( 1/100 dilution) in 0.1 M carbonate buffer (pH 9.0) by overnight incubation at 4° C. Wells were washed with Tris-buffered saline with 0.1% Tween-20 (TBS-T) followed by the addition of 100 μl of increasing dilutions of the sera to be tested. […] After 30 minutes, the absorbance (405 nm) from each well was recorded using an ELISA plate reader. The values, expressed as optical density (OD), were plotted against the reciprocal of serum dilution."}, "murine CMV [3]": {"system": "murine CMV", "assay": "Neutralizing CMV antibodies in sera of CMV-infected mice (plaque reduction on mouse embryonic fibroblast)", "assay_type": "in vivo, BALB/c mice", "settings": "the 7 positive sera of LTB4 treated mice; 1/100 dilution; 175 pfu murine CMV", "method": "Lastly, the sera from each mouse infected with CMV and treated with saline or LTB4 (see above) were analyzed for neutralizing antibodies. Briefly, a 1/100 dilution of individual serum was incubated with 175 pfu of murine CMV for 1 hour on ice. Samples (sera-virus) were then added to mouse embryonic fibroblast and incubated at 37° C. for 2 hour. Unadsorbed viruses were removed and cells were overlaid with methyl cellulose and incubated for 4 days at 37° C. in a humidified atmosphere with 5% CO2. At this time cells were fixed, colored with violet crystal and the number of plaques (CMV infected foci) counted. […] Uninfected mice had no neutralizing antibodies against CMV, as expected. […] We next compared the neutralizing activity of sera that tested positive for CMV neutralization. The 2 sera of infected mice that received saline were able to reduce, in average, CMV infectivity by 24%. In contrast, the 7 sera of LTB4 treated-mice were found capable of reducing CMV infectivity by 45%, almost twice the activity of control mice.\nThe serum from each mouse, described above, were tested for their CMV neutralizing activity. Briefly, a 1/100 dilution of individual serum was incubated with 175 pfu of murine CMV for 1 hour on ice. […] At this time cells were fixed, colored with violet crystal and the number of plaques (CMV infected foci) counted. […]"}, "B lymphocytes": {"system": "B lymphocytes", "settings": "cited from earlier work"}}, "note": "Entries after “also recorded” stand apart in the source; their conditions may differ.", "data": [{"compound": "CCCCC/C=C\\C[C@@H](O)/C=C/C=C/C=C\\[C@@H](O)CCCC(=O)O", "note": "[LTB4, Leukotriene B4]", "values": [{"measurement": "anti-BCG antibodies (ELISA OD) versus BCG + saline", "setting": "[1]", "value": "higher levels of anti-BCG antibodies; also recorded: greater reactivity against mycobacterium antigens"}, {"measurement": "total anti-CMV antibodies (ELISA OD) versus saline-treated group", "setting": "murine CMV [2]", "value": "more anti-CMV antibodies"}, {"measurement": "anti-Influenza IgG antibody response (ELISA OD) versus vaccine + saline", "setting": "Influenza; 1 ng LTB4 with 5 μl Fluviral vaccine, once, sera at day 14, p<0.05 in all three dilutions", "value": "greater anti-Influenza antibody response; also recorded: significantly higher anti-Influenza antibody response"}, {"measurement": "optimal dose of LTB4 as adjuvant", "setting": "Influenza; with 5 μl Fluviral vaccine", "value": 1, "unit": "ng"}, {"measurement": "reduction of CMV infectivity by sera positive for CMV neutralization (average)", "setting": "murine CMV [3]", "value": 45, "unit": "%"}, {"measurement": "effect on B cell proliferation or immunoglobulin synthesis (IgG or IgM)", "setting": "B lymphocytes; LTB4 by itself, in absence of exogenous cytokines or stimuli, in vitro", "value": "no effects"}, {"measurement": "effect on synthesis of immunoglobulin from B lymphocytes", "setting": "B lymphocytes; conflicting paper (Rola-Plecszczynski 1982)", "value": "inhibitory effects"}]}]}
